From patent publication US20180147206A1, “ACTIVATION OF NEURONAL STORE-OPERATED CALCIUM ENTRY PATHWAY FOR THE TREATMENT OF ALZHEIMER'S DISEASE” (The Board of Regents of the University of Texas System, priority 2015, published 2018)

Key:
[1] = test system: mushroom spines in hippocampal CA1 neurons; assay: Dendritic spine analysis in hippocampal slice; format: cell-based, mouse; conditions: 6 month-old mice, 300 nM for 3.5 hours
Method: FIGS. 6A-E. NSN21778 rescues mushroom spine and synaptic plasticity defects in AD hippocampal slices. (FIG. 6A) Confocal images of CA1 hippocampal slices from 6 month-old WTGFP, PS1KIGFP, and APPKIGFP mice. The images are shown for untreated slices (CON) and for slices treated with 300 nM NSN21778 (+NSN) for 3.5 hrs prior to fixation. Scale bar is 10 μm. (FIG. 6B) The fraction of mushroom spines in hippocampal CA1 neurons from 6 month-old WTGFP, PS1KIGFP, and APPKIGFP mice. The results are shown for untreated slices (CON) and for slices treated with 300 nM NSN21778 (+NSN). The average fraction of mushroom spines for each group of cells is shown as mean±SE (n≥31 neurons). ***, p <0.001. (FIG. 6C) Sample fEPSP traces are shown for 6 month-old WT and APPKI hippocampal slices prior to stimulation (basal), immediately after tetanus stimulation (induction) and 1 h after tetanus stimulation (after 1 hr). The results are shown for untreated slices and for slices pre-treated with 300 nM NSN21778 (+NSN) for 2-3 hours prior to tetanus stimulation. (FIG. 6D) The normalized and averaged fEPSP slope is shown as a function of time in the experiments with 6 month-old wild-type and APPKI slices with (+NSN) or without 300 nM NSN21778 pre-treatment. […]
Dendritic Spine Analysis in Hippocampal slice. […] Approximately 25 neurons from 5 mice were analyzed for each genotype. […]

[2] = In vitro metabolism in liver S9 fractions; format: in vitro ADME, mouse; conditions: phase I cofactors (NADPH regenerating system); 2 μM
Method: FIGS. 12A-D. NSN21778 in vitro metabolism stability, in vivo plasma pharmacokinetics, and side effect on body weight (Related to FIGS. 7A-G). (FIG. 12A) The metabolic stability of NSN21778 was evaluated in vitro after incubation with commercial liver S9 fractions in the presence of phase I (NADPH regenerating system) cofactors. Compound levels were determined by LC-MS/MS. Additionally, the stability of NSN21778 in the presence of commercial CD-1 mouse plasma was measured. (FIG. 12B) NSN21778 was dosed i.p. at 10 mg/kg to female CD-1 mice. Levels of NSN21778 in plasma and brain were evaluated by LC-MS/MS. (FIG. 12C) WTGFP, PS1KIGFP and APPKIGFP mice body weight after i.p. administrated with control solution or 10 mg/kg NSN21778 for 10 weeks. Data presented as mean±SE (n=5 mice). (FIG. 12D) Body weight gained for various treatments.
In vitro metabolism assays. Female ICR/CD-1 mouse S9 fractions were purchased from Celsis/In Vitro Technologies (Baltimore, Md.). 25 μl (0.5 mg) of S9 protein was added to a 15 ml glass screw cap tube. […] The supernatant was analyzed by LC-MS/MS. Stability in commercial mouse CD-1 plasma (Bioreclamation, Westbury, N.Y.) was measured in a similar fashion. […] Reactions were quenched with methanol as above and supernatants evaluated by LC-MS/MS. Compound half-life was determined by the method of substrate depletion as described (McNaney et al., 2008).

[3] = test system: other TRPCs (TRPC1-7), Orais (Orai1-3), or combination of TRPC6 and Orai2; assay: Fura-2 Ca2+ imaging in HEK293 cells transfected with other TRPCs, Orais or TRPC6 plus Orai2; format: cell-based; conditions: 1 μM (data not shown)
Method: To confirm the target for Hyp and NSN compounds, the inventors overexpressed TRPC6 in HEK293 cells and performed a series of Fura-2 Ca^2+ imaging experiments. […] In additional experiments, the inventors evaluated effects of 1 μM NSN compound in experiments with HEK293 cells transfected with other TRPCs (TRPC1-7), Orais (Orail-3), or combination of TRPC6 and Orai2. […] From these experiments, the inventors concluded that Hyp acts as direct activator of TRPC6 channels, but the actions of NSN compound are more complex. In further experiments, the inventors measured SOC in conditions of store depletion. To achieve this, HEK239 cells were preincubated in Ca^2+-free media containing 1 μM Tg. In these experiments, the inventors observed endogenous SOC response in EGFP-transfected cells, which was further enhanced in TRPC6-transfected cells. […] TRPC6 channels are known to be activated by DAG (Estacion et al., 2004). In spine nSOC measurements, addition of 100 μM DHPG was required to generate robust Ca^2+ responses. Thus, in the next series of experiments, the inventors evaluated effects of OAG, a synthetic and stable analog of DAG.

[4] = test system: spine nSOC channels; assay: GCamp5.3 Ca2+ imaging of synaptic nSOC in cultured hippocampal neurons; format: cell-based, mouse

## CC(=O)Nc1ccc(CCNc2ncnc3ccc(N)cc23)cc1 [NSN21778, N-{4-[2-(6-Amino-quinazolin-4-ylamino)-ethyl]-phenyl}-acetamide]
[1]; PS1KIGFP and APPKIGFP hippocampal slices
  mushroom spines: complete rescue
[1]; WTGFP slices
  mushroom spines: no effect
[2]
  metabolic stability in liver S9 fractions: generally stable
[3]
  Ca2+ influx: failed to induce Ca^2+ influx
[4]; PS1KI and APPKI hippocampal neurons, 300 nM applied prior to Ca2+ re-addition
  spine nSOC: rescued spine nSOC
[4]; wild-type spines, 300 nM
  spine nSOC: no significant effect
